In patent US8323627B2, “Monoester of N-undecylenoyl phenylalanine and polyol, method for preparing same, and use of said esters as a skin lightening agent” (Societe d'Exploitation de Produits pour les Industries …, priority 2008, dated 2012):

How the values were obtained:
B16/F1 melanocytes [1] = assay: Inhibition of extracellular melanin production in B16/F1 melanocyte cultures; format: cell-based, Mouse; conditions: for Depigmenting effect (summary in text of Table 1): B16/F1 melanocytes, doses of Table 1; for % Inhibition of extracellular melanin production relative to the control / Extracellular melanin (control: 98 μg ± 4 μg/ml): 72 hours incubation
Description: The influence of N-undecylenoyl phenylalanine monoglyceride, arbutin and N-undecylenoyl phenylalanine on the production of extracellular melanin, in B16/F1 melanocyte cultures, was compared.
Mouse melanocytes of the B16/F1 line cultured as monolayers are seeded in 96-well culture plates at a density of 1500 cells/well. The cells are cultured in a culture medium (MCM medium) at 37° C. under a humid atmosphere containing 5% CO2. The cells are used at 50% of confluence. The MCM medium has the following composition: DMEM medium (Dulbecco's Modified Eagle's Medium) containing 4.5 g/l of glucose supplemented with L-glutamine (2 mM), penicillin (50 IU/ml), streptomycin (50 μg/ml) and fetal calf serum (10% v/v). […] The melanocyte cultures are incubated in the presence of the test product or of the reference products for 72 hours at 37° C., under a humid atmosphere containing 5% CO2. Control cultures are incubated, in the absence of product, in the MCM medium. These control cultures are prepared on each culture plate. Each test is performed six times. After incubation for 72 hours, the incubation media of the cells (n=6) are taken up and stored at −80° C. until the time of evaluation of the effects. The extracellular melanin is quantified by spectrophotometry at 450 nm. A melanin calibration range is prepared in parallel. The results are expressed as μg/ml of extracellular melanin and as a percentage of inhibition relative to the control group in Table 1 below.

B16/F1 melanocytes [2] = assay: Cytotoxic effect in B16/F1 melanocyte cultures (Bradford total protein); format: cell-based, Mouse; conditions: for Cytotoxic effects (summary of Table 2): B16/F1 melanocytes, doses of Table 2; for % Decrease of the total amount of protein relative to the control / Evaluation (cytotoxicity): 72 hours incubation
Description: Study of the Cytotoxic Effect of the Compound of Formula (I) in B16/F1 melanocyte Cultures
Evaluation of the presence of cytotoxic effects is performed using the Bradford technique by staining with Coomassie blue (Bradford M., “A rapid and sensitive method for the quantification of microgram quantities of protein utilizing the principle of protein-dye binding”, Anal. Biochem., 1976, 72, 248-254). The B16/F1 melanocytes are incubated after seeding with the dilutions of the test products. After 72 hours of incubation, the B16/F1 melanocytes are washed and then lyzed, and Bradford's reagent is then added. After incubation for 5 minutes at room temperature, a spectrophotometric reading is taken at 640 nm in parallel with an albumin calibration range. The cytotoxicity is proven for a decrease greater than or equal to 20% of the total amount of protein. The results are expressed as a percentage decrease of the total amount of protein, in Table 2 below.

Compound | Depigmenting effect (summary in text of Table 1) (B16/F1 melanocytes [1]) | % Inhibition of extracellular melanin production relative to the control (B16/F1 melanocytes [1]; test product 80 μg/ml) | Extracellular melanin (control: 98 μg ± 4 μg/ml) (B16/F1 melanocytes [1]; test product 80 μg/ml) | Cytotoxic effects (summary of Table 2) (B16/F1 melanocytes [2]) | % Decrease of the total amount of protein relative to the control (B16/F1 melanocytes [2]; test product 60 μg/ml) | % Decrease of the total amount of protein relative to the control (B16/F1 melanocytes [2]; test product 80 μg/ml) | % Inhibition of extracellular melanin production relative to the control (B16/F1 melanocytes [1]; test product 40 μg/ml) [%] | Extracellular melanin (control: 98 μg ± 4 μg/ml) (B16/F1 melanocytes [1]; test product 40 μg/ml, n=6) [µg/mL] | % Decrease of the total amount of protein relative to the control (B16/F1 melanocytes [2]; test product 40 μg/ml) | % Decrease of the total amount of protein relative to the control (B16/F1 melanocytes [2]; test product 50 μg/ml) [%] | Evaluation (cytotoxicity) (B16/F1 melanocytes [2]; test product 50 μg/ml) | Evaluation (cytotoxicity) (B16/F1 melanocytes [2]; test product 80 μg/ml)
C=CCCCCCCCCC(=O)NC(Cc1ccccc1)C(=O)OCC(O)COCC(O)CO (stereo not shown) [Compound (B), N-undecylenoyl phenylalanine diglyceryl ester] | depigmenting effect | 34% | 54 ± 3 µg/mL | absence of cytotoxic effects | No observed decrease | No observed decrease |  |  |  |  |  | 
C=CCCCCCCCCC(=O)NC(Cc1ccccc1)C(=O)OCC(O)CO (stereo not shown) [Compound (A), N-undecylenoyl phenylalanine monoglyceride] | depigmenting effect | 58% | 42 ± 1 µg/mL | absence of cytotoxic effects |  | No observed decrease | 15 | 84 ± 8 | No observed decrease |  |  | 
C=CCCCCCCCCC(=O)N[C@@H](Cc1ccccc1)C(=O)O [N-Undecylenoyl phenylalanine, N-undecylenoyl phenylalanine] |  | Cytotoxicity | Cytotoxicity | cytotoxic |  | 80% | 40 | 59 ± 3 |  | 32 | Cytotoxic (The cytotoxicity is proven for a decrease greater than or equal to 20% of the total amount of protein) | Cytotoxic (The cytotoxicity is proven for a decrease greater than or equal to 20% of the total amount of protein)
OC[C@H]1O[C@@H](Oc2ccc(O)cc2)[C@H](O)[C@@H](O)[C@@H]1O [Arbutin, reference compound] |  |  |  |  |  |  | 61 | 39 ± 3 |  |  |  | 
